Blank lines part the entries; values can stand above or below the molecule they belong to. The source made the active and inactive calls. The calls are words filed in the database; no cut-off is given here.
Key:
[1] = Drug localization in golgi apparatus of human HeLa cells at 0.5 uM by fluorescence microscopy; assay type: ADME, subcellular
[2] = system: Panel NCI-60 (60 carcinoma cell lines); test: Growth inhibition of human NCI60 cells; assay type: functional
[3] = molecular target: T1, Oxysterol-binding protein 1 (Homo sapiens) (UniProt P22059); test: Inhibition of OSBP in human HeLa cells assessed as induction of golgi stress by measuring increase in TFE3-mediated UAP1L1 mRNA expression at 2 uM incubated for 12 hrs; assay type: cell-based
T1 sequence (whole entry): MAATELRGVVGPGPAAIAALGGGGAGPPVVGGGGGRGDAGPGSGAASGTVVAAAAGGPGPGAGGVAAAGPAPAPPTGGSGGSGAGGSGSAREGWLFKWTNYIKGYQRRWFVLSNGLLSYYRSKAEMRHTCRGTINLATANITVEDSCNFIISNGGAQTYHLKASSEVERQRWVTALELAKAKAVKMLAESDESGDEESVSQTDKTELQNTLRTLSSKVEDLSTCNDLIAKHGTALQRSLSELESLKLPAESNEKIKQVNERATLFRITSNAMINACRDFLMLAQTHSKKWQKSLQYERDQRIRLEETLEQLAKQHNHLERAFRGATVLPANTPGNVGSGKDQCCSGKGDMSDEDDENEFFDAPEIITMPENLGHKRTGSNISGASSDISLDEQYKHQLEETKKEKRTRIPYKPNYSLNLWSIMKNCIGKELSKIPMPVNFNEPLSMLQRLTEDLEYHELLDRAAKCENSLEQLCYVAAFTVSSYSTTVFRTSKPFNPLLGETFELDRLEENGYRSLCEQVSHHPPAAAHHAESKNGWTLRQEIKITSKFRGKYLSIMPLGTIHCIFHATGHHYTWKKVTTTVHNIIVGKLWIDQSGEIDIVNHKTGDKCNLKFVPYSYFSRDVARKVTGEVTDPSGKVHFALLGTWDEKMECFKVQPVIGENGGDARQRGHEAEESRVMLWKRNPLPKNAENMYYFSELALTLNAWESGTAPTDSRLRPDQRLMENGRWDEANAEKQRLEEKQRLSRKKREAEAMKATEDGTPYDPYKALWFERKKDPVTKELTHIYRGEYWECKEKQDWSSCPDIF

[4] = molecular target: T1, Oxysterol-binding protein 1 (Homo sapiens); test: Inhibition of OSBP in human HeLa cells assessed as induction of golgi stress by measuring downregulation of HSP47 mRNA expression at 2 uM incubated for 12 hrs; assay type: cell-based
[5] = molecular target: T1, Oxysterol-binding protein 1 (Homo sapiens); test: Inhibition of OSBP in human HeLa cells assessed as induction of golgi stress by measuring TFE3 nuclear translocation at 2 uM incubated for 4 hrs by immunofluorescence imaging analysis; assay type: cell-based
[6] = molecular target: T1, Oxysterol-binding protein 1 (Homo sapiens); test: Inhibition of OSBP in human HeLa cells assessed as induction of golgi stress by measuring GASE transactivation at 1 uM incubated for 24 hrs by GASE-luciferase reporter gene assay; assay type: cell-based
HeLa [7] = test: Induction of ER stress in human HeLa cells assessed as effect on pATF6(P) level at 1 uM incubated for 1 to 24 hrs by immunoblotting analysis; assay type: functional, cell-based
[8] = molecular target: T1, Oxysterol-binding protein 1 (Homo sapiens); test: Inhibition of OSBP in human HeLa cells assessed as induction of golgi stress by measuring upregulation of ARF4 mRNA expression at 2 uM incubated for 12 hrs; assay type: cell-based
[9] = molecular target: T1, Oxysterol-binding protein 1 (Homo sapiens); test: Induction of OSBP localization in golgi apparatus of human HeLa cells assessed as increase in colocalization of 58K golgi protein at 5 nM incubated for 30 mins by immunofluorescence imaging method; assay type: cell-based
HeLa [10] = test: Induction of ER stress in human HeLa cells assessed as effect on CHOP level at 1 uM incubated for 1 to 24 hrs by immunoblotting analysis; assay type: functional, cell-based
[11] = molecular target: T1, Oxysterol-binding protein 1 (Homo sapiens); test: Inhibition of OSBP in human HeLa cells assessed as induction of golgi stress by measuring increase in TFE3-mediated GM130 mRNA expression at 2 uM incubated for 12 hrs; assay type: cell-based
HeLa [12] = test: Induction of ER stress in human HeLa cells assessed as effect on BiP mRNA level at 2 uM incubated for 1 1 hrs by qRT-PCR analysis; assay type: functional, cell-based
[13] = molecular target: T1, Oxysterol-binding protein 1 (Homo sapiens); test: Inhibition of OSBP in human HeLa cells assessed as induction of golgi stress by measuring increase in TFE3-mediated SIAT4A mRNA expression at 2 uM incubated for 12 hrs; assay type: cell-based
[14] = molecular target: T1, Oxysterol-binding protein 1 (Homo sapiens); test: Induction of OSBP localization in golgi apparatus of human HeLa cells assessed as induction of cytosolic OSBP aggregation into vesicular structures at Golgi at 0.5 uM by eYFP detection based time-lapse imaging; assay type: cell-based
[15] = molecular target: T1, Oxysterol-binding protein 1 (Homo sapiens); test: Induction of OSBP localization in golgi apparatus of human HeLa cells assessed as dispersion of GM130 in to cytosol at 2 uM incubated for 6 hrs by immunofluorescence microscopic method; assay type: cell-based
HeLa [16] = test: Induction of ER stress in human HeLa cells assessed as effect on pXBP1(S) level at 1 uM incubated for 1 to 24 hrs by immunoblotting analysis; assay type: functional, cell-based
HeLa [17] = test: Induction of ER stress in human HeLa cells assessed as effect on ATF4 level at 1 uM incubated for 1 to 24 hrs by immunoblotting analysis; assay type: functional, cell-based
HeLa [18] = test: Induction of ER stress in human HeLa cells assessed as effect on P-eIF2alpha level at 1 uM incubated for 1 to 24 hrs by immunoblotting analysis; assay type: functional, cell-based
HeLa [19] = test: Induction of ER stress in human HeLa cells assessed as effect on CHOP mRNA level at 2 uM incubated for 1 1 hrs by qRT-PCR analysis; assay type: functional, cell-based
[20] = molecular target: T1, Oxysterol-binding protein 1 (Homo sapiens); test: Induction of OSBP localization in golgi apparatus of human HeLa cells assessed as dispersion of giantin in to cytosol at 2 uM incubated for 6 hrs by immunofluorescence microscopic method; assay type: cell-based
HeLa [21] = test: Induction of ER stress in human HeLa cells assessed as effect on ERdj4 mRNA level at 2 uM incubated for 1 1 hrs by qRT-PCR analysis; assay type: functional, cell-based
[22] = molecular target: T1, Oxysterol-binding protein 1 (Homo sapiens); test: Inhibition of OSBP in human HeLa cells assessed as induction of golgi stress by measuring TFE3(S)/TFE3(L) dephosphorylation at 1 uM incubated for 2 hrs by Western blot analysis; assay type: cell-based
HeLa [23] = test: Induction of ER stress in human HeLa cells assessed as effect on eIF2alpha level at 1 uM incubated for 1 to 24 hrs by immunoblotting analysis; assay type: functional, cell-based
[24] = molecular target: T1, Oxysterol-binding protein 1 (Homo sapiens); test: Inhibition of OSBP in human HeLa cells assessed as induction of golgi stress by measuring increase in TFE3-mediated GCP60 mRNA expression at 2 uM incubated for 12 hrs; assay type: cell-based
HeLa [25] = test: Induction of ER stress in human HeLa cells assessed as effect on pATF6(N) level at 1 uM incubated for 1 to 24 hrs by immunoblotting analysis; assay type: functional, cell-based

- Drug uptake [1]: Active
SMILES: COc1ccc(C(=O)O[C@H]2[C@H](O[C@@H]3[C@@H](OC(C)=O)[C@H](O[C@H]4C[C@H]5[C@@H]6CC=C7C[C@@H](O)CC[C@]7(C)[C@H]6CC[C@]5(C)[C@@]4(O)[C@H](C)C(=O)CCC(C)C)OC[C@@H]3O)OC[C@@H](OC(=O)CN(C)c3ccc(S(=O)(=O)N(C)C)c4nonc34)[C@@H]2O)cc1
- GI50 [2]: 4 nM

- inhibition [3]: Active
- inhibition [4]: Active
- inhibition [5]: Active
- inhibition [6]: Active
- inhibition [8]: Active
- Activity [9]: Active
- inhibition [11]: Active
- inhibition [13]: Active
- Activity [14]: Active
- Activity [15]: Active
- Activity [20]: Active
- inhibition [22]: Active
- inhibition [24]: Active
SMILES: COc1ccc(C(=O)O[C@H]2[C@H](O[C@@H]3[C@@H](OC(C)=O)[C@H](O[C@H]4C[C@H]5[C@@H]6CC=C7C[C@@H](O)CC[C@]7(C)[C@H]6CC[C@]5(C)[C@@]4(O)[C@H](C)C(=O)CCC(C)C)OC[C@@H]3O)OC[C@@H](O)[C@@H]2O)cc1
- Activity (HeLa [7]): inactive
- Activity (HeLa [10]): inactive
- Activity (HeLa [12]): inactive
- Activity (HeLa [16]): inactive
- Activity (HeLa [17]): inactive
- GI50 [2]: 0.78 nM
- Activity (HeLa [18]): inactive
- Activity (HeLa [19]): inactive
- Activity (HeLa [21]): inactive
- Activity (HeLa [23]): inactive
- Activity (HeLa [25]): inactive
